In patent US20080293931A1, “Methods and compositions for the removal of nucleic acid amplification inhibitors” (priority 2006, published 2008):
Several values for one entry are separate records, joined by “and”; a condition that tells them apart may be missing. Identical values can stand only once. Counter-ions that a name gives are not always drawn. Like-named read-outs stand apart in the source and are kept apart here.

Legend:
[1] = Humic acid (HA) removal from aqueous commercial HA solutions by PIR compounds, fluorimetric HA determination; conditions: for performance as PIR compound (in words): commercial humic acid solutions
Experimental: Humic solutions were in 1×TAE buffer at RT with pH˜7. […] Samples from PIR experiments utilizing these materials were diluted, using 1×TAE, to concentrations falling within the linear response region representative of the humic material used.
In this study, when samples were interrogated for humic acid concentrations via fluorimetry, known concentrations of commercial humic acids were compared to known concentrations of humic standards.
FIG. 1 compares the HA removal from samples containing DNA of interest to the molar concentration of varied PIR compounds by plotting an HA reduction factor as the initial [HA] divided by [HA] following treatment with PIR compounds. The commercially available PIR kit, from Mo-BIO, is placed on FIG. 1 for comparison and was arbitrarily assigned a molar concentration of 1 for convenience. […] The data shown in FIG. 1 were generated from varied initial [HA], ranging from ˜5,000 to 300,000 mg/L HA. These varied initial [HA] values represent a “worst case” scenario and these are in comparison to initial [HA] in extractions from problematic soils generating humic acid concentrations typically less than 5,000 mg/L.
FIG. 2 plots the data from the same experiments represented in FIG. 1, but applying a different approach for data metric. FIG. 2 plots a dimensionless HA removal efficiency (or efficacy) value versus the decade of dilution necessary for successful PCR. The efficiency of HA removal is defined in equation 1 as the initial [HA] minus the final [HA] divided by the initial [HA]. This is essentially a percent removal approach.
Efficiency=[HA]i−[HA]f/[HA]; (1)
To further discriminate efficiency values greater than 0.99, the efficiency was subtracted from the integer value of 1, and the −log was taken of 1-efficiency to generate a non-negative value indicative of HA removal efficiency with greater level of discrimination and resolution of values with high degrees of HA removal. This is described by equation 2.

[2] = Stability of PIR compound in aqueous solution
E. coli DNA = assay: PCR of seeded E. coli DNA after PIR treatment of aqueous HA samples (decade of dilution necessary for successful PCR); conditions: PIR 1 M; aqueous humic samples seeded with E. coli DNA; HAi avg 6,500-12,300 depending on compound (Table 6 c2)
Experimental: Consideration of dilution factors for successful PCR must also be reviewed. In untreated soil extracts containing DNA of interest, successful PCR of the extracted DNA may occur when the polymerase inhibitor is diluted sufficiently such that inhibition is suppressed and PCR may occur. Typical values for the dilution decade at which PCR is successful in samples containing humic materials and DNA of interest are often around decade four (1×10^4). Accordingly, a dilution factor of 10,000 would be necessary for successful PCR in a typical soil extract/sample. This magnitude of dilution may also impact PCR sensitivity for DNA/species already present at low concentrations and result in not identifying an organism that was present in the original sample extract.
Using this approach for presenting the HA removal data allows for the determination of a PIR compound's effectiveness for HA removal (ε) and compatibility for application in PCR systems via dilution data for PCR.

[3] = Humic acid removal from soil extracts (Los Alamos Airport Soil) by PIR compounds; conditions: 100 mM PIR, HA 7,600 mg/L
Experimental: Aqueous samples of humic solutions were interrogated via fluorimetry on a Jobin Jvon Spex Fluorolog II with an excitation wavelength of 471 nm, an emission wavelength of 529 nm, with slits @ 10 nm bandpass, pmt bias of 950V, 1 second integration per reading and 10 readings per sample or <0.1% RSD per sample. Humic solutions were in 1×TAE buffer at RT with pH˜7. […] Samples from PIR experiments utilizing these materials were diluted, using 1×TAE, to concentrations falling within the linear response region representative of the humic material used.

seeded E. coli DNA = assay: PCR after PIR treatment of soil extracts (dilution to achieve PCR); conditions: 100 mM PIR; soil extracts (Los Alamos Airport Soil)
B. anthracis Sterne DNA = conditions: PIR (thiamine) treated; for B. anthracis per rxn: at 1st positive dilution; for 1st DNA dilution with positive PCR: spiked with B. anthracis Sterne DNA
[4] = PIR 1 M, aqueous humic samples seeded with E. coli DNA, HAi avg 6,500-12,300 depending on compound (Table 6 c2)

O=C(C[n+]1ccsc1)c1ccc([N+](=O)[O-])cc1.[Br-] [PTB-NO2, 4-Nitro-Phenacyl Thiazolium Bromide]
performance as PIR compound (in words) [1]: did not perform well
performance as PIR compound (in words) ([1]; listed as PTB-N): poor performance
stability in aqueous solutions [2]: not stable
time to orange/red precipitate following dissolution ([2]; aqueous solutions): approximately 1 hour

Cc1ncc(C[n+]2csc(CCO)c2C)c(N)n1 [THI, Thiamine Hydrochloride]
Average Efficiency, ε [1, 4]: 2.13
Avg Reduction Factor [1, 4]: 258
Typical dilution decade for PCR (E. coli DNA): 0
range of dilutions (dilution decade for PCR) (E. coli DNA): 0-3
average efficiency values [3]: 1.4
average reduction factors [3]: 45
dilution decade at which PCR is achieved, on average (seeded E. coli DNA): 1.8
B. anthracis per rxn (B. anthracis Sterne DNA; soil “A”): ~10^4 cell equivalents
1st DNA dilution with positive PCR (B. anthracis Sterne DNA; soil “A”): 10^0
B. anthracis per rxn (B. anthracis Sterne DNA; soil “B”): ~10^4 cell equivalents
1st DNA dilution with positive PCR (B. anthracis Sterne DNA; soil “B”): 10^0
B. anthracis per rxn (B. anthracis Sterne DNA; soil “C”): ~10^4 cell equivalents
1st DNA dilution with positive PCR (B. anthracis Sterne DNA; soil “C”): 10^0
improvement of purity of DNA samples (bacterial 16S rDNA): two orders of magnitude
increase in purity of soil DNA extract (bacterial 16S rDNA): ≥ 10 fold
1st DNA dilution with positive PCR (bacterial 16S rDNA; Hydrochloride): 10^−2 and 10^−1
DNA dilution with positive PCR (bacterial 16S rDNA; Hydrochloride): 10^0 and 10^−1
